Assay results: US5470852A, “Tetrahydroprotoberberine quaternary ammonium compounds useful in for treating arrhythmia” (priority 1991, dated 1995)
“Also recorded” adds a separate entry of the source. Like-named read-outs stand apart in the source and are kept apart here.

How the values were obtained:
rabbits [1] = assay: APD 24 hours after AMI in rabbits; assay type: in vivo, rabbit
Protocol: 24 hours after AMI, APD is markedly shortened.

[2] = system: Langendorff's perfused rat hearts; assay: Lasting antiarrhythmic action after po administration, hearts removed and mounted on Langendorff's apparatus; assay type: in vivo; design: ke: unit not given beside the values
Protocol: 1, 3 and 6 hours after the administration of 100 mg/kg of I13 by p.o. to rats, the hearts were removed and mounted onto Langendorff's apparatus. […] (see FIG. 4)
FIG. 4. Influence of po I13 and mexiletine on the time course of reperfusion-induced arrhythmias in Langendorff's perfused rat hearts

[3] = system: pathological papillary muscles in rats (hypertrophy); assay: Action potential in hypertrophic papillary muscles in rats (abdominal aorta occlusion); assay type: cell-based, rat
Excerpt: (§1) Effect of I13 (μ mol/L) on estimates of action potential induced in
(§2) normal and pathological papillary muscles in rats.

[4] = system: normal papillary muscles of guinea pig; assay: Action potential of normal papillary muscles of guinea pig; assay type: cell-based; conditions: for APA (action potential amplitude) / APD20 / APD50 / APD90 / ERP (effective refractory period) / RP (resting potential) / Vmax: n=7
Excerpt: Effect of I13 on estimates of action potential of normal papillary

dogs = assay: Ouabain-induced arrhythmia in dogs; assay type: in vivo, dog; conditions: for Incidence of arrhythmia: I13 iv 3 mg/kg, lidocaine iv 12 mg/kg
Protocol: (iv, 12 mg/kg) on ouabain induced arrhythmia in dogs
(Ouabain administration for 30 min)

[5] = system: normal papillary muscles in rats; assay: Action potential in normal papillary muscles in rats; assay type: cell-based, rat; conditions: n=6, I13 concentration not given
Excerpt: as §1, §2

hypertrophic rat heart = assay: Reperfusion-induced VF and VT in hypertrophic rat heart (L-thyroxine); assay type: in vivo
Protocol: 4. In the model of hypertrophic rat heart muscle disease caused by long term injections of L-thyroxine, high incidence of VF has been induced in vitro and in vivo when compared with the control after low perfusion-reperfusion or ischemia-reperfusion protocol. […] (shown in Tab 6)
Effect of I13 (100 mg/kg, ig administration at 1 hour before experiment)
on reperfusion-induced VF and VT in hypertrophic rat heart, a
myopathy induced by injecting L-thyroxin

anaesthetized rats = assay: animal or person; conditions: Rattus norvegicus
rabbits [6] = assay: Electrically-induced ventricular fibrillation threshold (VFT) in rabbits; assay type: in vivo, rabbit; conditions: for VFT Before: baseline
[7] = hypertrophy, n=5, I13 concentration not given
[8] = 100 mg/kg ig 1 hour before, n=10

`COc1ccc2c(c1OC)C[N+]1(Cc3ccc(Cl)cc3)CCc3cc4c(cc3C1C2)OCO4` (stereo not drawn) [Compound I13, 7-(4-chlorobenzyl)-5,8,13,13a-tetrahydroberberine chloride] was tested, and the “effect on APD shortening after AMI” value (rabbits [1]) was “could be cancelled”, the ke ([2]; 30 mg/kg po at 1 hr before experiment (FIG. 4)) was 0.144 and the ke ([2]; 100 mg/kg po at 1 hr before experiment (FIG. 4)) was 0.556. The ke ([2]; 100 mg/kg po at 3 hr before experiment (FIG. 4)) was 0.056, the ke ([2]; 100 mg/kg po at 6 hr before experiment (FIG. 4)) was 0.037 and the “antiarrhythmic effects after washing isolated hearts” value ([2]; 1, 3 and 6 hours after p.o. 100 mg/kg, 30 min washing) was “persisted even after 30 minutes of washing”. For the same compound, the “influence on APD in hypertrophic myocardium” value [3] was “could not be further exaggerated; also recorded: no action on hypertrophic myocardium”, the “Vmax in left ventricular hypertrophy” value ([3]; abdominal aorta occlusion, rats) was “completely inhibited” and the APA [3, 7] was 104 ± 4 mv. For the same compound, the APD20 [3, 7] was 8 ± 2 ms, the APD50 [3, 7] was 20 ± 4 ms and the APD90 [3, 7] was 45 ± 5 ms. For the same compound, the ERP [3, 7] was 45 ± 9 ms, the RP [3, 7] was 81 ± 3 mv and the Vmax [3, 7] was 210 ± 40 v/s. For the same compound, the “influence on APA” value [4] was “no influence”, the “influence on RP” value [4] was “no influence” and the “influence on APD50 (printed ADP50)” value ([4]; 0.3 μmol/L) was “able to lengthen ADP50”. The “APA (action potential amplitude)” value ([4]; 0.3 μmol/L) was 125 ± 3 mv, the APD20 ([4]; 0.3 μmol/L) was 88 ± 13 ms and the APD50 ([4]; 0.3 μmol/L) was 176 ± 29 ms. For the same compound, the APD90 ([4]; 0.3 μmol/L) was 201 ± 30 ms, the “ERP (effective refractory period)” value ([4]; 0.3 μmol/L) was 201 ± 28 ms and the “RP (resting potential)” value ([4]; 0.3 μmol/L) was 91 ± 1 mv. The Vmax ([4]; 0.3 μmol/L) was 260 ± 60 v/s, the “APA (action potential amplitude)” value ([4]; 1 μmol/L) was 123 ± 3 mv and the APD20 ([4]; 1 μmol/L) was 86 ± 10 ms. For the same compound, the APD50 ([4]; 1 μmol/L) was 181 ± 27 ms, the APD90 ([4]; 1 μmol/L) was 208 ± 29 ms and the “ERP (effective refractory period)” value ([4]; 1 μmol/L) was 207 ± 27 ms. For the same compound, the “RP (resting potential)” value ([4]; 1 μmol/L) was 90 ± 1 mv, the Vmax ([4]; 1 μmol/L) was 250 ± 70 v/s and the “APA (action potential amplitude)” value ([4]; 3 μmol/L) was 123 ± 3 mv. The APD20 ([4]; 3 μmol/L) was 84 ± 8 ms, the APD50 ([4]; 3 μmol/L) was 182 ± 23 ms and the APD90 ([4]; 3 μmol/L) was 211 ± 26 ms. The “ERP (effective refractory period)” value ([4]; 3 μmol/L) was 213 ± 18 ms, the “RP (resting potential)” value ([4]; 3 μmol/L) was 89 ± 3 mv and the Vmax ([4]; 3 μmol/L) was 217 ± 60 v/s. For the same compound, the “APA (action potential amplitude)” value ([4]; 10 μmol/L) was 122 ± 3 mv, the APD20 ([4]; 10 μmol/L) was 80 ± 5 ms and the APD50 ([4]; 10 μmol/L) was 161 ± 28 ms. For the same compound, the APD90 ([4]; 10 μmol/L) was 206 ± 26 ms, the “ERP (effective refractory period)” value ([4]; 10 μmol/L) was 211 ± 23 ms and the “RP (resting potential)” value ([4]; 10 μmol/L) was 89 ± 1 mv. For the same compound, the Vmax ([4]; 10 μmol/L) was 180 ± 60 v/s, the “APA (action potential amplitude)” value ([4]; 30 μmol/L) was 116 ± 5 mv and the APD20 ([4]; 30 μmol/L) was 58 ± 11 ms. For the same compound, the APD50 ([4]; 30 μmol/L) was 128 ± 19 ms, the APD90 ([4]; 30 μmol/L) was 158 ± 22 ms and the “ERP (effective refractory period)” value ([4]; 30 μmol/L) was 166 ± 24 ms. For the same compound, the “RP (resting potential)” value ([4]; 30 μmol/L) was 87 ± 3 mv, the Vmax ([4]; 30 μmol/L) was 140 ± 50 v/s and the “influence on APD50 and APD90 (printed ADP50, ADP90)” value ([4]; 1 to 3 μmol/L) was “prolonged”. For the same compound, the inhibition at 3 µM ([4]; Cavia porcellus, 3 μmol/L, isolated papillary muscles of guinea pigs, read-out: inhibition of Vmax) was 20%, the antiarrhythmic class properties ([4]; electrophysiological studies) was “properties of Ia, Ib and III” and the “two-phase effect on APD” value ([4]; low vs high concentrations) was “lengthened at low concentrations and shortened at high concentrations”. For the same compound, the Incidence of arrhythmia (dogs; 0 min (before administration)) was 97 ± 5%, the Incidence of arrhythmia (dogs; 5 min) was 83 ± 22% and the Incidence of arrhythmia (dogs; 10 min) was 72 ± 31%. For the same compound, the Incidence of arrhythmia (dogs; 15 min) was 59 ± 36%, the Incidence of arrhythmia (dogs; 20 min) was 45 ± 43% and the Incidence of arrhythmia (dogs; 25 min) was 40 ± 38%. It also gave an Incidence of arrhythmia (dogs; 30 min) of 27 ± 34%, an Incidence of arrhythmia (dogs; 35 min) of 26 ± 34% and an Incidence of arrhythmia (dogs; 40 min) of 14 ± 33%. For the same compound, the Incidence of arrhythmia (dogs; 45 min) was 12 ± 31%, the Incidence of arrhythmia (dogs; 50 min) was 11 ± 28% and the Incidence of arrhythmia (dogs; 60 min) was 8 ± 20%. The “inhibition of ouabain-induced arrhythmias” value (dogs; dogs) was “markedly inhibited”, the “antiarrhythmic effect compared with lidocaine” value (dogs; i.v. gtt. 0.1 mg/kg/min for 30 mins vs lidocaine 0.4 mg/kg/min) was “the same antiarrhythmic effect as lidocaine” and the “anti-arrhythmic activity relative to lidocaine” value (dogs; ouabain, dogs) was 4 times. The reoccurrence of arrhythmia (dogs; within 4 hour period) was “lack of reoccurrence of arrhythmia within a 4 hour period”, the APA [5] was 108 ± 9 mv and the APD20 [5] was 5 ± 1 ms. It also gave an APD50 [5] of 15 ± 4 ms, an APD90 [5] of 44 ± 9 ms and an ERP [5] of 43 ± 8 ms. The RP [5] was 83 ± 4 mv, the Vmax [5] was 200 ± 50 v/s and the “Duration of VF” value (hypertrophic rat heart; [8]) was 2.0 ± 3.0 min. The “Duration of VT” value (hypertrophic rat heart; [8]) was 0.4 ± 0.8 min, the “Incidence of VF” value (hypertrophic rat heart; [8]) was 30% and the “Incidence of VT” value (hypertrophic rat heart; [8]) was 20%. For the same compound, the “inhibition of incidence of VF and VT” value (hypertrophic rat heart; p.o. 100 mg/kg one hour prior to ischemia) was “clearly inhibited the incidence of VF and VT”, the ED50 (anaesthetized rats; iv) was 0.16 mg/kg and the ED50 (anaesthetized rats; iv, read-out: ED50 against VF) was 0.16 mg/kg. It also gave an ED50 (anaesthetized rats; iv, read-out: ED50 against arrhythmias) of 0.22 mg/kg, an ED50 (anaesthetized rats; po) of 16.5 mg/kg and an ED50 (anaesthetized rats; po, read-out: ED50 against VF) of 20 mg/kg. For the same compound, the ED50 (anaesthetized rats; po, read-out: ED50 against arrhythmias) was 16.5 mg/kg, the “VFT Before” value (rabbits [6]; intra-duodenal 4.5 mg/kg group) was 5.8 ± 0.3 volt and the “VFT Before” value (rabbits [6]; intra-duodenal 15 mg/kg group) was 5.2 ± 0.9 volt. For the same compound, the “VFT Before” value (rabbits [6]; iv 1.5 mg/kg group) was 5.2 ± 0.6 volt, the “potency in elevating VFT relative to lidocaine” value (rabbits [6]; i.v.) was “ten times more potent than lidocaine” and the “AUC (area under curve, VFT effect)” value (rabbits [6]; id 4.5 mg/kg) was 48.1. For the same compound, the “AUC (area under curve, VFT effect)” value (rabbits [6]; id 15 mg/kg) was 83.7, the VFT After (rabbits [6]; intra-duodenal 4.5 mg/kg) was 8.9 ± 0.4 volt and the ΔVFT (rabbits [6]; intra-duodenal 4.5 mg/kg) was 3.1 ± 0.4 volt. The ΔVFT % (rabbits [6]; intra-duodenal 4.5 mg/kg) was 53.0 ± 7.6%, the VFT After (rabbits [6]; intra-duodenal 15 mg/kg) was 9.9 ± 2.2 volt and the ΔVFT (rabbits [6]; intra-duodenal 15 mg/kg) was 4.8 ± 1.5 volt. For the same compound, the ΔVFT % (rabbits [6]; intra-duodenal 15 mg/kg) was 92.1 ± 19.5%, the “AUC (area under curve, VFT effect)” value (rabbits [6]; iv 1.5 mg/kg) was 11.1 and the “VFT After” value (rabbits [6]; iv 1.5 mg/kg) was 8.1 ± 1.1 volt. The ΔVFT (rabbits [6]; iv 1.5 mg/kg) was 2.8 ± 0.8 volt, the ΔVFT % (rabbits [6]; iv 1.5 mg/kg) was 54.4 ± 16.9% and the “AUC (area under curve, VFT effect)” value (rabbits [6]; iv 4.5 mg/kg) was 14.4. For the same compound, the “VFT After” value (rabbits [6]; iv 4.5 mg/kg) was 8.8 ± 1.1 volt, the ΔVFT (rabbits [6]; iv 4.5 mg/kg) was 3.6 ± 0.6 volt and the ΔVFT % (rabbits [6]; iv 4.5 mg/kg) was 72.2 ± 9.7%.
